Source: patent publication US8927560B2, “4-Aza-2, 3-didehydropodophyllotoxin compounds and process for the preparation thereof” (Council of Scientific & Industrial Research, priority 2010, dated 2015)

How the values were obtained:
MCF7 = assay: SRB in vitro cytotoxicity assay, MCF7 breast cancer cells; assay type: cell-based; conditions: Homo sapiens, 48 h drug exposure, read-out: In vitro anticancer activity GI50, Breast MCF7
Description: (§1) Compounds 4a-4z and 4aa-4ae have been evaluated for their in vitro cytotoxicity in selected human cancer cell lines i.e., colon (Colo205), lung (Hop-62, A549), cervix (SiHa), prostate (PC3), oral (KB, DWD, Gurav), Ovarian (A-2780) and breast (MCF7, Zr-75-1) origin by employing the sulforhodamine B (SRB) assay method (Skehn, P.; Storeng, R.; Scudiero, A.; Monks, J.; MeMohan, D.; Vistica, D.; Jonathan, T. W.; Bokesch, H.; Kenney, S.; Boyd M. R. J. Natl. Cancer Inst. 1990, 82, 1107).
(§2) The synthesized compounds have been evaluated for their in vitro cytotoxicity in human cancer cell lines. A protocol of 48 h continuous drug exposure has been used and a sulforhodamine B (SRB) protein assay has been used to estimate cell viability or growth. The cell lines were grown in DMEM medium containing 10% fetal bovine serum and 2 mM L-glutamine and were inoculated into 96 well microtiter plates in […] at plating densities depending on the doubling time of individual cell lines. The microliter plates were incubated at 37_C, 5% CO2, 95% air, and 100% relative humidity for 24 h prior to addition of experimental drugs. Aliquots of […] of the drug dilutions were added to the appropriate microliter wells already containing […] of cells, suiting in the required final drug concentrations. For each compound four concentrations (0.1, 1, 10 and 100 uM) were evaluated and each was done in triplicate wells. Plates were incubated further for 48 h and assay was terminated by the addition of […] of cold trichloro acetic acid (TCA) (final concentration, 10% TCA) and incubated for 60 min at 4_C. The plates were washed five times with tap water and airdried. Sulforhodamine B (SRB) solution ([…]) at 0.4% (w/v) in 1% acetic acid was added to each of the cells, and plates were incubated for 20 min at room temperature. The residual dye was removed by washing five times with 1% acetic acid. The plates were airdried. Bound stain was subsequently eluted with 10 mM trizma base, and the absorbance was read on an ELISA plate reader at a wavelength of 540 nm with 690 nm reference wavelengths. Percent growth was calculated on a plate by plate basis for test wells relative to control wells. The above determinations were repeated three times. Percentage growth was expressed as the (ratio of average absorbance of the test well to the average absorbance of the control wells)*100. Growth inhibition of 50% (GI50) was calculated from [(Ti−Tz)/(C−Tz)]*100 ¼ 50, which is the drug concentration resulting in a 50% reduction in the net protein increase (as measured by SRB staining) in control cells during the drug incubation. Where, Tz ¼ Optical density at time zero, OD of control ¼ C, and OD of test growth in the presence of drug ¼ Ti.

Colo 205 = assay: SRB in vitro cytotoxicity assay, Colo 205 colon cancer cells; assay type: cell-based; conditions: Homo sapiens, 48 h drug exposure, read-out: In vitro anticancer activity GI50, Colon Colo 205
Description: as §1, §2

KB = assay: SRB in vitro cytotoxicity assay, KB oral cancer cells; assay type: cell-based; conditions: Homo sapiens, 48 h drug exposure, read-out: In vitro anticancer activity GI50, Oral KB
Description: as §1, §2

A-549 = assay: SRB in vitro cytotoxicity assay, A-549 lung cancer cells; assay type: cell-based; conditions: Homo sapiens, A549, 48 h drug exposure, read-out: In vitro anticancer activity GI50, Lung A-549
Description: as §1, §2

Hop62 = assay: SRB in vitro cytotoxicity assay, Hop62 lung cancer cells; assay type: cell-based; conditions: Homo sapiens, HOP-62, 48 h drug exposure, read-out: In vitro anticancer activity GI50, Lung Hop62
Description: as §1, §2

| SMILES | melting point | GI50 (MCF7) | GI50 (Hop62) | further results |
| --- | --- | --- | --- | --- |
| COc1cc(C2C3=C(COC3=O)Nc3c2cc(OC)c(OC)c3OC)ccc1O (stereo not drawn) [Compound 4ae, 9-(4-hydroxy-3-methoxyphenyl)-5,6,7-trimethoxy-1,3,4,9-tetrahydrofuro[3,4-b]quinolin-1-one] | 290 to 291 °C | 2900 nM | – | – |
| COc1ccc(C2C3=C(COC3=O)Nc3ccc4cc[nH]c4c32)cc1[N+](=O)[O-] (stereo not drawn) [Compound 4i, 10-(4-methoxy-3-nitrophenyl)-6,7,9,10-tetrahydro-1H-furo[3,4-b]pyrrolo[2,3-f]quinolin-9-one] | – | – | – | GI50 (Colo 205): 2400 nM |
| COc1cc(C2C3=C(COC3=O)Nc3ccc4nc(C)sc4c32)ccc1[N+](=O)[O-] (stereo not drawn) [Compound 4w, 10-(3-methoxy-4-nitrophenyl)-2-methyl-6,7,9,10-tetrahydrofuro[3,4-b][1,3]thiazolo[5,4-f]quinolin-9-one] | 190 to 191 °C | 150 nM | – | – |
| COc1cc(C2C3=C(COC3=O)Nc3ccc4nn[nH]c4c32)cc(OC)c1OC (stereo not drawn) [Compound 4y, 10-(3,4,5-trimethoxyphenyl)-6,7,9,10-tetrahydro-1H-furo[3,4-b][1,2,3]triazolo[4,5-f]quinolin-9-one] | 324 to 325 °C | – | – | GI50 (KB): 2900 nM |
| COc1nc2c(c(OC)n1)C(c1ccc(F)c(OC)c1)C1=C(COC1=O)N2 (stereo not drawn) [Compound 4d, 5-(4-fluoro-3-methoxyphenyl)-2,4-dimethoxy-5,6,8,9-tetrahydrofuro[3′,4′:5,6]pyrido[2,3-d]pyrimidin-6-one] | 267 to 270 °C | – | – | GI50 (KB): 2200 nM; GI50 (A-549): 2600 nM |
| COc1nc2c(c(OC)n1)C(c1ccc(OC)c(O)c1)C1=C(COC1=O)N2 (stereo not drawn) [Compound 4c, 5-(3-hydroxy-4-methoxyphenyl)-2,4-dimethoxy-5,6,8,9-tetrahydrofuro[3′,4′:5,6]pyrido[2,3-d]pyrimidin-6-one] | 284 to 285 °C | – | 2800 nM | – |
| COc1ccc(C2C3=C(COC3=O)Nc3ccc4cn[nH]c4c32)cc1O (stereo not drawn) [Compound 4p, 10-(3-hydroxy-4-methoxyphenyl)-6,7,9,10-tetrahydro-1H-furo[3,4-b]pyrazolo[3,4-f]quinolin-9-one] | 243 to 245 °C | – | 2600 nM | GI50 (Colo 205): 2600 nM |
| COc1ccc(C2C3=C(COC3=O)Nc3ccc4cc(C)[nH]c4c32)c(F)c1 (stereo not drawn) [Compound 4m, 10-(2-fluoro-4-methoxyphenyl)-2-methyl-6,7,9,10-tetrahydro-1H-furo[3,4-b]pyrrolo[2,3-f]quinolin-9-one] | 205 to 207 °C | < 100 nM | – | – |
| COc1ccc(-c2noc3c2C(c2cc(OC)c(OC)c(OC)c2)C2=C(COC2=O)N3)cc1 (stereo not drawn) [Compound 4aa, 3-(4-methoxyphenyl)-4-(3,4,5-trimethoxyphenyl)-4,5,7,8 tetrahydrofuro[3′,4′:5,6]pyrido[3,2-d]isoxazol-5-one] | 218 to 219 °C | – | 2500 nM | – |
| COc1ccc(C2C3=C(COC3=O)Nc3ccc4nc(S)[nH]c4c32)cc1O (stereo not drawn) [Compound 4x, 10-(3-hydroxy-4-methoxyphenyl)-2-sulfanyl-6,7,9,10-tetrahydro-1H-furo[3,4-b]imidazo[4,5-f]quinolin-9-one] | 334 to 337 °C | 2700 nM | – | – |
| COc1ccc(C2C3=C(COC3=O)Nc3ccc4nn[nH]c4c32)c(F)c1 (stereo not drawn) [Compound 4z, 10-(2-fluoro-4-methoxyphenyl)-6,7,9,10-tetrahydro-1H-furo[3,4-b][1,2,3]triazolo[4,5-f]quinolin-9-one] | 308 to 310 °C | < 100 nM | – | – |
| COc1ccc(C2C3=C(COC3=O)Nc3onc(-c4ccc(Cl)cc4)c32)cc1O (stereo not drawn) [Compound 4ad, 3-(4-chlorophenyl)-4-(3-hydroxy-4-methoxyphenyl)-4,5,7,8-tetrahydrofuro[3′,4′:5,6]pyrido[3,2-d]isoxazol-5-one] | 245 to 246 °C | – | – | GI50 (KB): 2700 nM |
| COc1nc2c(c(OC)n1)C(c1ccc(O)c(OC)c1)C1=C(COC1=O)N2 (stereo not drawn) [Compound 4b, 5-(4-hydroxy-3-methoxyphenyl)-2,4-dimethoxy-5,6,8,9-tetrahydrofuro[3′,4′:5,6]pyrido[2,3-d]pyrimidin-6-one] | 294 to 296 °C | – | 2700 nM | – |
